For one compound, GI50, EC50 and IC50 results are on record in patent publication US20240091292A1, “METHODS FOR TREATMENT OF HUMAN CANCERS USING CANNABIS COMPOSITIONS” (Apollon Formularies PLC, priority 2021, published 2024).

What is called GI50 is the concentration that inhibits growth by half. In general, pEC50 refers to the negative decadic logarithm of the EC50, by convention in mol/L. Low values mean a high EC50, high ones a low EC50. Usually pIC50 stands for −log10 of the IC50, conventionally taken in molar units.

pEC50, pIC50: −log10 of the molar value.

Holding throughout (format): cell-based
The subject of assay [1] is BT-474. The experiment in a line: 3D Cell Proliferation Screen, BT-474. Particulars: Homo sapiens, 120 h; BT-474 breast spheroids, 5 days; relative to T0; positive control. Here is the method: (§1) Experimental Methods: 3D Cell Proliferation Assay
(§2) Cells were seeded at 1000 cells/well in media in 384-well Corning® Spheroid microplates. The microplates were incubated at 37 C in 5% CO2 incubator to allow for spheroid formation.
(§3) Aliquots of each sample were vortexed and centrifuged at 3,000 rpm (800 g) for 5 minutes at room temperature. Supernatants (500-fold stocks) were stored under sterile conditions at 4 C.
(§4) On the day of the assay, a 9-point dose-response of each 500-fold stock was prepared and added to the spheroid plates to provide final assay concentrations ranging from 1e-04 to 1-fold, in 0.2% DMSO. Final assay conditions for each sample are shown on Table 1.
(§5) Assay plates were incubated at 37 C in an atmosphere containing 5% CO2 for 5 days. […] Cell viability was determined at 5 days post-compound addition. Briefly, 3D-CellTiter Glow™ reagent (Promega) was added to assay plates per the manufacturer's recommendations. Plates were shaken until spheroids were lysed and luminescence was read at room temperature.
(§6) Cell proliferation end point was analyzed as Percent of Control (POC) using the following formula: […]
(§7) EC50, IC50 and GI50 values were calculated using nonlinear regression to fit data to a sigmoidal 4-point, 4-parameter log-logistic dose response model: […]

In assay [2] the test system is 22Rv-1. The experiment in a line: 3D Cell Proliferation Screen, 22Rv-1. Conditions: Homo sapiens, 22Rv1, 120 h; 22Rv-1 prostate spheroids, 5 days; relative to T0; positive control. The protocol: as §1, §2, §3, §4, §5, §6, §7
In assay [3] the test system is T24. The experiment in a line: 3D Cell Proliferation Screen, T24. Particulars: Homo sapiens, T-24, 120 h, T24 bladder spheroids, 5 days, positive control. The protocol:
as §1, §2, §3, §4, §5, §6
(§8) A relative cell count EC50 is the concentration of the test compound that produces a response half-way between the maximum and baseline. Relative cell count IC50 is the concentration of the test compound that produces 50% of the cell proliferation inhibitory response or 50% cytotoxicity level. GI50 is the concentration of the test compound that produces 50% reduction in proliferation of cancer cells relative to T0. The output of each biomarker is fold-increase over vehicle control background normalized to the relative cell count in each well.
(§9) EC50, IC50 and GI50 values were calculated using nonlinear regression to fit data to a sigmoidal 4-point, 4-parameter log-logistic dose response model:
(§10) Curve-fitting and EC50 calculations were performed using the R statistical software package with R's drc library.

Assay [4] relates to PC-3. The experiment in a line: 3D Cell Proliferation Screen, PC-3. Particulars: Homo sapiens, 120 h, PC-3 prostate spheroids, 5 days, positive control. The protocol: as §1, §2, §3, §4, §5, §6, §7
Assay [5] deals with NCI-H460. The experiment in a line: 3D Cell Proliferation Screen, NCI-H460. Conditions: Homo sapiens, 120 h; NCI-H460 lung spheroids, 5 days; relative to T0; positive control. Here is the method: as §1, §2, §3, §4, §5, §6, §7
Assay [6] has as its system T-47D. The experiment in a line: 3D Cell Proliferation Screen, T-47D. Conditions: Homo sapiens, T47D, 120 h, T-47D breast spheroids, 5 days, positive control. Here is the method:
as §1, §2, §3, §4, §5, §6, §8, §9, §10

The subject of assay [7] is HT-29. Put plainly: 3D Cell Proliferation Screen, HT-29. Conditions: Homo sapiens, 120 h, HT-29 colon spheroids, 5 days, positive control. Here is the method:
as §1, §2, §3, §4, §5, §6, §8, §9, §10

Assay [8] concerns A-549. The experiment in a line: 3D Cell Proliferation Screen, A-549. Conditions: Homo sapiens, A549, 120 h, A-549 lung spheroids, 5 days, positive control. Here is the method:
as §1, §2, §3, §4, §5, §6, §7

For the compound `CN[C@@H]1C[C@H]2O[C@@](C)([C@@H]1OC)n1c3ccccc3c3c4c(c5c6ccccc6n2c5c31)C(=O)NC4` [Staurosporine], the GI50 in assay [1] turned out to be 3 nM; in assay [2] it was 13 nM; in assay [3] (relative to T0), 1 nM; in assay [4] (relative to T0) it was 1 nM; in assay [5], 17 nM; in assay [6] (relative to T0) it was 38 nM. Moreover, the GI50 in assay [7] (relative to T0) was found to be 7 nM; in assay [8] (relative to T0), 11 nM. Besides, the pEC50 is 7.89 in assay [3], 7.00 in assay [6], 8.05 in assay [7] and 7.77 in assay [8]. Also, the pIC50 is 7.89 in assay [3], 8.40 in assay [4], 7.00 in assay [6] and 8.05 in assay [7].
